From patent US20250041279A1, “THERAPEUTIC MEDICINE FOR HEART DISEASE OR SKELETAL MUSCLE DISEASE” (SHIONOGI & CO., LTD., priority 2021, published 2025)
Blank lines part the entries; values can stand above or below the compound they belong to.

Legend:
Atgl knockout mice = test: Long-chain fatty acid metabolizing ability in Atgl knockout mouse myocardium (BMIPP SPECT/CT wash out rate); type: in vivo
Method: Atgl (adipose-triglyceride lipase) knockout mice are known as non clinical models of TGCV. Atgl knockout mice (KO mice) deficient in the Atgl gene were each produced by a known method.
The compound of the present invention was suspended in a 0.5% HPMC aqueous solution so that the dose of the same was 30 or 45 mg/kg/10 mL, and orally administered to 6 to 7-week-old male Atgl knockout mice on the day before and the day when the long chain fatty acid metabolizing ability was measured. On the day of measurement of long-chain fatty acid metabolizing ability, 14.6 MBq/mouse of iodine-123-8 methyl iodophenyl-pen-tadecanoic acid (BMIPP) was administered via the tail vein. At 1 hour and 4 hours after administration, the mice were imaged by single-photon emission computed tomography (SPECT)/CT under anesthesia, and the radioactivity of the administered BMIPP in the myocardium was measured. The metabolism of long-chain fatty acids in the myocardium was calculated as a wash out rate by the following formula.

C57BL/6JJcl mice = test: Plasma triglyceride concentration in mice fed ultra-high fat, choline-deficient, methionine-lowered diet; type: in vivo; details: for Plasma triglyceride concentration: bid, mean ± standard error; for plasma triglyceride concentration versus vehicle-administered group: mice fed ultra-high fat, choline-deficient, methionine-lowered diet, repeated oral b.i.d.
Method: Six-week-old male C57BL/6JJcl mice were fed an ultra-high fat, choline-deficient, methionine-lowered diet (60 kcal % fat content, using lard, choline-deficient, methionine-lowered (0.1%)), and at the same time, the compound of the present invention was suspended in a vehicle (0.5% methylcellulose aqueous solution) so as to have a dose of 3 to 45 mg/kg/10 mL, and orally repeatedly administered (b.i.d.) for 8 weeks. Blood was collected from the tail vein during the repeated administration period, and biochemical parameters in plasma were measured.

Crl:CD (SD) rats = test: Influence on platelet count in SD rats; type: in vivo; details: for Platelet count: mean ± standard deviation; for effect on platelet count: within the dose range used for evaluation
Method: The compound of the present invention was suspended in a 0.5% methylcellulose solution so as to have a dose of 50 to 600 mg/kg/day, and was orally repeatedly administered for 4 days to 6-week-old male Crl:CD (SD) rats under non-fasted conditions. On day 5 from the start of administration, blood was collected from the abdominal vena cava under anesthesia, and […]. A platelet count in plasma was evaluated with an automatic hemocytometer.

recombinant human ACC2 = recombinant human ACC2 (Homo sapiens (Human), UniProt O00763); test: Measurement of inhibitory activity of human ACC2 (MALDI-TOF MS); type: biochemical; details: read-out: IC50 hACC2
Sequence of recombinant human ACC2 (O00763 27-2458): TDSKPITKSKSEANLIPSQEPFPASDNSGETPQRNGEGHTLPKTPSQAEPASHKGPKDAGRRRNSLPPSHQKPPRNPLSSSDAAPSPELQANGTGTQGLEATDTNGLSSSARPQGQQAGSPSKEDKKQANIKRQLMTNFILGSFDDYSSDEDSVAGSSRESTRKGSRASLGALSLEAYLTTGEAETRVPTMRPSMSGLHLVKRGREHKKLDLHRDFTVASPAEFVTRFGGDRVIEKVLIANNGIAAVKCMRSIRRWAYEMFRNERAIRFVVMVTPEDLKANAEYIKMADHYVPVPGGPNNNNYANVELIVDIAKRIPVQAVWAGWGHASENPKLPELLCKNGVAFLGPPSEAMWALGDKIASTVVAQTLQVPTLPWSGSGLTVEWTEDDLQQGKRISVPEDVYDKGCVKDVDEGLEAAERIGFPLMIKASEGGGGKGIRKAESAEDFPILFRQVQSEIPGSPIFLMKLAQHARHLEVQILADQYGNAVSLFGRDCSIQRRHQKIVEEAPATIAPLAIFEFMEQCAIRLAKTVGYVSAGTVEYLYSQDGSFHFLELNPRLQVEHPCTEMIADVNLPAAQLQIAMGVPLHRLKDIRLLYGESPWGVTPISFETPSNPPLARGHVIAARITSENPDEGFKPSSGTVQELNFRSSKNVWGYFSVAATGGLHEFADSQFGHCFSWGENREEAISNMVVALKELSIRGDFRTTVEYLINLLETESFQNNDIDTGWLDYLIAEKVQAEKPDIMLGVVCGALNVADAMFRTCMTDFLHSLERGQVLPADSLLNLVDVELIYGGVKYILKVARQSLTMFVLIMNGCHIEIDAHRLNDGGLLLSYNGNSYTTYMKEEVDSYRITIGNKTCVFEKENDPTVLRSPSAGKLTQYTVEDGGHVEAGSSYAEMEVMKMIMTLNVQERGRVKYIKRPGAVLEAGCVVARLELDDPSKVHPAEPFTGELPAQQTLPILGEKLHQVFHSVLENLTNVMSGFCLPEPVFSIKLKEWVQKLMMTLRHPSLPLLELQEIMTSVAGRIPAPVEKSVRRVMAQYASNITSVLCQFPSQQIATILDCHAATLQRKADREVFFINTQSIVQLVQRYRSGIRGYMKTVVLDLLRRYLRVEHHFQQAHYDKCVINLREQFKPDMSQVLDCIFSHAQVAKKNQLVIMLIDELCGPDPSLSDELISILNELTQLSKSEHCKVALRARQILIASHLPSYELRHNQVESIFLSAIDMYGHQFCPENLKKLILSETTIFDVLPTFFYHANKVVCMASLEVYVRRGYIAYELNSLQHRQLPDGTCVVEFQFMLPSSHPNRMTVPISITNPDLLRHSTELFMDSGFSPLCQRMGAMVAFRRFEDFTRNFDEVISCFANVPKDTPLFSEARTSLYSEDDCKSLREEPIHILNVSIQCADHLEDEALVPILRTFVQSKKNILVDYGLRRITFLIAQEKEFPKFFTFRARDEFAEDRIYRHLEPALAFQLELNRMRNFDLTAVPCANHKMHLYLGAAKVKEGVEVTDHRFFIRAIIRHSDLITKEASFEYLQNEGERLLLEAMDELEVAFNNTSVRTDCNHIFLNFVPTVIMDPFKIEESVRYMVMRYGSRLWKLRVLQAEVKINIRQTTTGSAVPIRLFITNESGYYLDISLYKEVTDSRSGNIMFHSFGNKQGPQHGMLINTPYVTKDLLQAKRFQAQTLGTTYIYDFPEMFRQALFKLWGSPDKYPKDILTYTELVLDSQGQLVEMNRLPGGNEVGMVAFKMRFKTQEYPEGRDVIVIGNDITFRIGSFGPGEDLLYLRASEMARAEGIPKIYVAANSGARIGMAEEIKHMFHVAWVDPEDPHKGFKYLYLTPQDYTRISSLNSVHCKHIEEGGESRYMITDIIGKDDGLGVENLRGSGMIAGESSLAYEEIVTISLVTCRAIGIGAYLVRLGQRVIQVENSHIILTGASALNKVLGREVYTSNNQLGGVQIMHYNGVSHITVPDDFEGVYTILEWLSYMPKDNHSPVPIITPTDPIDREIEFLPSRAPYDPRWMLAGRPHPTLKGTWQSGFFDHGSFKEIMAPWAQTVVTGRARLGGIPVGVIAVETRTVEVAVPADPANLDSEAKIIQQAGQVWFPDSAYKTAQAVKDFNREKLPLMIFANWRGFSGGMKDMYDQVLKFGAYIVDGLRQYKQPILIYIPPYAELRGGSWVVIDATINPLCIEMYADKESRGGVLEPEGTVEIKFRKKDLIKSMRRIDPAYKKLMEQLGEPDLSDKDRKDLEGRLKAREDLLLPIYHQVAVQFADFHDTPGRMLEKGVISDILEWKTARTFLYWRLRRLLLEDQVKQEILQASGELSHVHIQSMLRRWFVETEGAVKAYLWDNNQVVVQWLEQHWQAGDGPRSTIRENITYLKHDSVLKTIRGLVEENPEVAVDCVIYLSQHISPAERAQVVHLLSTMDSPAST
From the text: A cDNA encoding human ACC2 protein (27 amino acid residues to 2458 amino acid residues from the N-terminus) was cloned from a human kidney cDNA library (Clontech Laboratories, Inc.), a His-tag sequence was introduced at the 5′ end, and then inserted into pFastBac1 (Invitrogen). A recombinant baculovirus was produced in accordance with the protocol for a Bac-to-Bac baculovirus expression system (Invitrogen), and Sf-9 cells were infected therewith to express human ACC2 protein. The recovered cells were crushed, filtered through a filter, and then subjected to Ni affinity chromatography and anion exchange chromatography. Fractions containing human ACC2 protein were collected to obtain recombinant human ACC2.
The recombinant human ACC1 and the recombinant human ACC2 obtained from the above Preparation Examples were preincubated in an assay buffer (50 mM HEPES-KOH (pH 7.4), 10 mM magnesium chloride, 6 to 10 mM potassium citrate, 4 mM glutathione reduced form, and 1.5 mg/ml bovine serum albumin) for 1 hour. […] Deprotonated ions of the substrate acetyl-CoA (AcCoA) and the reaction product malonyl-CoA (MalCoA) were detected, and the intensity of each signal was used to calculate a conversion rate to malonyl-CoA or succinyl-CoA, i.e., intensity of [MalCoA-H]—/(intensity of [MalCoA-H]-+intensity of [AcCoA.H].). […] The potassium citrate concentration in the assay buffer, the potassium bicarbonate concentration in the substrate solution, and the incubation time were adjusted within the above concentrations or reaction times for each lot of the enzyme to be used.

[1] = Metabolic stability test, human liver microsomes; type: in vitro ADME; details: 37° C., 30 minutes, NADPH
Method: Commercially available pooled human liver microsomes were reacted with the compound of the present invention for a given time. A residual rate was calculated by comparison between the reacted sample and the unreacted sample to evaluate a degree at which the compound of the present invention is metabolized in the liver.
The compound was reacted at 37° C. for 0 minutes or 30 minutes in the presence of 1 mmol/L NADPH in 0.2 mL of a buffer (50 mmol/L Tris-HCl pH 7.4, 150 mmol/L potassium chloride, and 10 mmol/L magnesium chloride) containing 0.5 mg protein/mL of the human liver microsomes (oxidative reaction). After the reaction, 50 μL of the reaction solution was added to 100 μL of a solution of methanol/acetonitrile=1/1 (v/v) and mixed, and the mixture was centrifuged at 3000 rpm for 15 minutes. The compound of the present invention in the centrifuged supernatant was quantified by LC/MS/MS or solid-phase extraction (SPE)/MS. The amount of the compound of the present invention remained after the reaction was calculated with the amount of the compound at 0 minutes of the reaction defined as 100%.

Plasma triglyceride concentration (C57BL/6JJcl mice; 15 mg/kg, 0 weeks): 61.6 ± 3.1 mg/dL
Plasma triglyceride concentration (C57BL/6JJcl mice; 15 mg/kg, 1 week): 23.7 ± 1.0 mg/dL
Plasma triglyceride concentration (C57BL/6JJcl mice; 15 mg/kg, 3 weeks): 19.8 ± 1.2 mg/dL
Plasma triglyceride concentration (C57BL/6JJcl mice; 15 mg/kg, 5 weeks): 19.0 ± 1.7 mg/dL
Plasma triglyceride concentration (C57BL/6JJcl mice; 15 mg/kg, 7 weeks): 18.8 ± 1.2 mg/dL
Plasma triglyceride concentration (C57BL/6JJcl mice; 45 mg/kg, 0 weeks): 63.6 ± 3.7 mg/dL
Plasma triglyceride concentration (C57BL/6JJcl mice; 45 mg/kg, 1 week): 22.4 ± 2.5 mg/dL
Plasma triglyceride concentration (C57BL/6JJcl mice; 45 mg/kg, 3 weeks): 18.9 ± 1.4 mg/dL
Plasma triglyceride concentration (C57BL/6JJcl mice; 45 mg/kg, 5 weeks): 16.5 ± 1.7 mg/dL
Plasma triglyceride concentration (C57BL/6JJcl mice; 45 mg/kg, 7 weeks): 15.1 ± 1.0 mg/dL
Platelet count (Crl:CD (SD) rats; 50 mg/kg/day oral for 4 days): 1079 ± 73
Platelet count (Crl:CD (SD) rats; 100 mg/kg/day oral for 4 days): 1048 ± 65
Platelet count (Crl:CD (SD) rats; 200 mg/kg/day oral for 4 days): 1122 ± 87
effect on platelet count (Crl:CD (SD) rats): did not affect
IC50 (recombinant human ACC2): 6.6 nM
Remaining amount of compound, Human [1]: 95.4%
SMILES: CC(=O)N[C@@H](C)CCC1OCC(Oc2nc3c(F)c(OC4CC4)ccc3n2C)CO1 (some centres unmarked) [Compound I-13]
long-chain fatty acid metabolizing ability in myocardium (wash out rate) (Atgl knockout mice; 45 mg/kg/10 mL oral, p<0.05, Welch's t test): significant improving effect
plasma triglyceride concentration versus vehicle-administered group (C57BL/6JJcl mice): lower than that in the vehicle-administered group

Plasma triglyceride concentration (C57BL/6JJcl mice; 3 mg/kg, 2 weeks): 32.9 ± 1.3 mg/dL
Plasma triglyceride concentration (C57BL/6JJcl mice; 3 mg/kg, 4 weeks): 22.4 ± 2.1 mg/dL
Plasma triglyceride concentration (C57BL/6JJcl mice; 3 mg/kg, 7 weeks): 27.2 ± 1.5 mg/dL
Plasma triglyceride concentration (C57BL/6JJcl mice; 10 mg/kg, 2 weeks): 30.4 ± 2.2 mg/dL
Plasma triglyceride concentration (C57BL/6JJcl mice; 10 mg/kg, 4 weeks): 21.5 ± 1.8 mg/dL
Plasma triglyceride concentration (C57BL/6JJcl mice; 10 mg/kg, 7 weeks): 22.1 ± 1.9 mg/dL
Plasma triglyceride concentration (C57BL/6JJcl mice; 30 mg/kg, 2 weeks): 23.1 ± 2.5 mg/dL
Plasma triglyceride concentration (C57BL/6JJcl mice; 30 mg/kg, 4 weeks): 11.1 ± 1.1 mg/dL
Plasma triglyceride concentration (C57BL/6JJcl mice; 30 mg/kg, 7 weeks): 16.2 ± 1.6 mg/dL
Platelet count (Crl:CD (SD) rats; 100 mg/kg/day oral for 4 days): 987 ± 86
Platelet count (Crl:CD (SD) rats; 300 mg/kg/day oral for 4 days): 988 ± 43
Platelet count (Crl:CD (SD) rats; 600 mg/kg/day oral for 4 days): 1061 ± 85
effect on platelet count (Crl:CD (SD) rats): did not affect
IC50 (recombinant human ACC2): 5.6 nM
Remaining amount of compound, Human [1]: 83.3%
SMILES: C[C@@H](COC1CCC(Oc2nc3c(F)cc(OC4CC4)cc3n2C)CC1)NC(N)=O (some centres unmarked) [Compound I-12]
long chain fatty acid metabolizing ability in myocardium (wash out rate) (Atgl knockout mice; 30 mg/kg/10 mL oral, p=0.096, Welch's t test): tended to improve
plasma triglyceride concentration versus vehicle-administered group (C57BL/6JJcl mice): lower than that in the vehicle-administered group
